#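 How tested: cells in 96-well plates exposed to compound for 48 hours at five concentrations. The concentration for 50% growth inhibition is given as GI50. TGI marks complete inhibition of growth.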
# Legend:
# Assay in all cases: growth of human tumour cells (NCI), 48 h
# U251 CNS = tested on: U251 CNS
# SK-MEL-2 melanoma = tested on: SK-MEL-2 melanoma
# BT-549 breast = tested on: BT-549 breast
# COLO 205 colon = tested on: COLO 205 colon
# MCF7 breast = tested on: MCF7 breast
# EKVX NSCLC = tested on: EKVX NSCLC
# A498 renal = tested on: A498 renal
# HCT-116 colon = tested on: HCT-116 colon
# DU-145 prostate = tested on: DU-145 prostate
# SF-268 CNS = tested on: SF-268 CNS
# SK-OV-3 ovarian = tested on: SK-OV-3 ovarian
# SR leukemia = tested on: SR leukemia
# KM12 colon = tested on: KM12 colon
# SF-295 CNS = tested on: SF-295 CNS
# SK-MEL-28 melanoma = tested on: SK-MEL-28 melanoma
# ACHN renal = tested on: ACHN renal
# SK-MEL-5 melanoma = tested on: SK-MEL-5 melanoma
# M14 melanoma = tested on: M14 melanoma
# RXF 393 renal = tested on: RXF 393 renal
# UO-31 renal = tested on: UO-31 renal
# PC-3 prostate = tested on: PC-3 prostate
# SNB-19 CNS = tested on: SNB-19 CNS
# CAKI-1 renal = tested on: CAKI-1 renal
# RPMI-8226 leukemia = tested on: RPMI-8226 leukemia
# IGROV1 ovarian = tested on: IGROV1 ovarian
# HCC-2998 colon = tested on: HCC-2998 colon
# OVCAR-8 ovarian = tested on: OVCAR-8 ovarian
# NCI/ADR-RES ovarian = tested on: NCI/ADR-RES ovarian
# UACC-62 melanoma = tested on: UACC-62 melanoma
# LOX IMVI melanoma = tested on: LOX IMVI melanoma
# HT29 colon = tested on: HT29 colon
# MDA-MB-435 = tested on: MDA-MB-435
# K-562 leukemia = tested on: K-562 leukemia
# TK-10 renal = tested on: TK-10 renal
# A549 NSCLC = tested on: A549 NSCLC
# HOP-62 NSCLC = tested on: HOP-62 NSCLC
# T-47D breast = tested on: T-47D breast
# SW-620 colon = tested on: SW-620 colon
# OVCAR-5 ovarian = tested on: OVCAR-5 ovarian
# MDA-MB-231 breast = tested on: MDA-MB-231 breast
# OVCAR-4 ovarian = tested on: OVCAR-4 ovarian
# UACC-257 melanoma = tested on: UACC-257 melanoma
# OVCAR-3 ovarian = tested on: OVCAR-3 ovarian
# NCI-H460 lung = tested on: NCI-H460 lung
# HCT-15 colon = tested on: HCT-15 colon
# SF-539 CNS = tested on: SF-539 CNS
# CCRF-CEM leukemia = tested on: CCRF-CEM leukemia
# 786-0 renal = tested on: 786-0 renal
# MALME-3M melanoma = tested on: MALME-3M melanoma
# NCI-H23 lung = tested on: NCI-H23 lung
# MOLT-4 leukemia = tested on: MOLT-4 leukemia
# NCI-H226 lung = tested on: NCI-H226 lung
# HS 578T breast = tested on: HS 578T breast
# NCI-H522 lung = tested on: NCI-H522 lung
# HL-60(TB) leukemia = tested on: HL-60(TB) leukemia
# SN12C renal = tested on: SN12C renal
# HOP-92 NSCLC = tested on: HOP-92 NSCLC
# SNB-75 CNS = tested on: SNB-75 CNS
smiles,measurement,setting,value
CS(=O)(=O)O[C@H]1CN2C[C@@H](O)[C@@H](O)[C@H]2[C@H]1CO,TGI,U251 CNS,> 100 µM
same,TGI,SK-MEL-2 melanoma,> 100 µM
same,TGI,BT-549 breast,> 100 µM
same,TGI,COLO 205 colon,> 100 µM
same,TGI,MCF7 breast,> 100 µM
same,TGI,EKVX NSCLC,> 100 µM
same,TGI,A498 renal,> 100 µM
same,TGI,HCT-116 colon,> 100 µM
same,TGI,DU-145 prostate,> 100 µM
same,TGI,SF-268 CNS,> 100 µM
same,TGI,SK-OV-3 ovarian,> 100 µM
same,TGI,SR leukemia,> 100 µM
same,TGI,KM12 colon,> 100 µM
same,TGI,SF-295 CNS,> 100 µM
same,TGI,SK-MEL-28 melanoma,> 100 µM
same,TGI,ACHN renal,> 100 µM
same,TGI,SK-MEL-5 melanoma,> 100 µM
same,TGI,M14 melanoma,> 100 µM
same,TGI,RXF 393 renal,> 100 µM
same,TGI,UO-31 renal,> 100 µM
same,TGI,PC-3 prostate,> 100 µM
same,TGI,SNB-19 CNS,> 100 µM
same,TGI,CAKI-1 renal,> 100 µM
same,TGI,RPMI-8226 leukemia,> 100 µM
same,TGI,IGROV1 ovarian,> 100 µM
same,TGI,HCC-2998 colon,> 100 µM
same,TGI,OVCAR-8 ovarian,> 100 µM
same,TGI,NCI/ADR-RES ovarian,> 100 µM
same,TGI,UACC-62 melanoma,> 100 µM
same,TGI,LOX IMVI melanoma,> 100 µM
same,TGI,HT29 colon,> 100 µM
same,TGI,MDA-MB-435,> 100 µM
same,TGI,K-562 leukemia,> 100 µM
same,TGI,TK-10 renal,> 100 µM
same,TGI,A549 NSCLC,> 100 µM
same,TGI,HOP-62 NSCLC,> 100 µM
same,TGI,T-47D breast,> 100 µM
same,TGI,SW-620 colon,> 100 µM
same,TGI,OVCAR-5 ovarian,> 100 µM
same,TGI,MDA-MB-231 breast,> 100 µM
same,TGI,OVCAR-4 ovarian,> 100 µM
same,TGI,UACC-257 melanoma,> 100 µM
same,TGI,OVCAR-3 ovarian,> 100 µM
same,TGI,NCI-H460 lung,> 100 µM
same,TGI,HCT-15 colon,> 100 µM
same,TGI,SF-539 CNS,> 100 µM
same,TGI,CCRF-CEM leukemia,> 100 µM
same,TGI,786-0 renal,> 100 µM
same,TGI,MALME-3M melanoma,> 100 µM
same,TGI,NCI-H23 lung,> 100 µM
same,TGI,MOLT-4 leukemia,> 100 µM
same,TGI,NCI-H226 lung,> 100 µM
OC[C@H]1C[C@](O)(c2ccc(Cl)cc2)[C@@H](c2ccc(Cl)cc2)O1,GI50,U251 CNS,24.8 µM
same,TGI,U251 CNS,69.5 µM
same,GI50,BT-549 breast,16.8 µM
same,TGI,BT-549 breast,34.6 µM
same,GI50,COLO 205 colon,25.6 µM
same,TGI,COLO 205 colon,51.8 µM
same,GI50,MCF7 breast,30 µM
same,TGI,MCF7 breast,72.8 µM
same,GI50,HS 578T breast,18 µM
same,TGI,HS 578T breast,45.6 µM
same,GI50,EKVX NSCLC,18.2 µM
same,TGI,EKVX NSCLC,48.2 µM
same,GI50,A498 renal,24.6 µM
same,TGI,A498 renal,57.3 µM
same,GI50,HCT-116 colon,17.3 µM
same,TGI,HCT-116 colon,35.6 µM
same,GI50,DU-145 prostate,22.1 µM
same,TGI,DU-145 prostate,56.9 µM
same,GI50,SF-268 CNS,26.8 µM
same,TGI,SF-268 CNS,> 100 µM
same,GI50,SK-OV-3 ovarian,39.4 µM
same,TGI,SK-OV-3 ovarian,> 100 µM
same,GI50,SR leukemia,202 nM
same,TGI,SR leukemia,16.8 µM
same,GI50,KM12 colon,20.6 µM
same,TGI,KM12 colon,51 µM
same,GI50,SF-295 CNS,30.1 µM
same,TGI,SF-295 CNS,84.8 µM
same,GI50,NCI-H522 lung,26 µM
same,TGI,NCI-H522 lung,52.9 µM
same,GI50,SK-MEL-28 melanoma,28.9 µM
same,TGI,SK-MEL-28 melanoma,92.3 µM
same,GI50,ACHN renal,28 µM
same,TGI,ACHN renal,97.3 µM
same,GI50,SK-MEL-5 melanoma,15.3 µM
same,TGI,SK-MEL-5 melanoma,29.3 µM
same,GI50,RXF 393 renal,20.8 µM
same,TGI,RXF 393 renal,39.7 µM
same,GI50,UO-31 renal,19.4 µM
same,TGI,UO-31 renal,50.3 µM
same,GI50,PC-3 prostate,19.8 µM
same,TGI,PC-3 prostate,57.5 µM
same,GI50,SNB-19 CNS,37.8 µM
same,TGI,SNB-19 CNS,> 100 µM
same,GI50,CAKI-1 renal,27 µM
same,TGI,CAKI-1 renal,79.3 µM
same,GI50,HL-60(TB) leukemia,17.6 µM
same,TGI,HL-60(TB) leukemia,49.2 µM
same,GI50,RPMI-8226 leukemia,13.7 µM
same,TGI,RPMI-8226 leukemia,34.9 µM
same,GI50,HCC-2998 colon,23.8 µM
same,TGI,HCC-2998 colon,52.9 µM
same,GI50,OVCAR-8 ovarian,31.2 µM
same,TGI,OVCAR-8 ovarian,91.7 µM
same,GI50,NCI/ADR-RES ovarian,30.3 µM
same,TGI,NCI/ADR-RES ovarian,87.5 µM
same,GI50,SN12C renal,17 µM
same,TGI,SN12C renal,35.8 µM
same,GI50,UACC-62 melanoma,16 µM
same,TGI,UACC-62 melanoma,31.6 µM
same,GI50,LOX IMVI melanoma,17.9 µM
same,TGI,LOX IMVI melanoma,34.8 µM
same,GI50,HT29 colon,23.7 µM
same,TGI,HT29 colon,50.1 µM
same,GI50,MDA-MB-435,22.9 µM
same,TGI,MDA-MB-435,47.8 µM
same,GI50,K-562 leukemia,24.9 µM
same,TGI,K-562 leukemia,76.5 µM
same,GI50,TK-10 renal,30.5 µM
same,TGI,TK-10 renal,84.3 µM
same,GI50,A549 NSCLC,29.6 µM
same,TGI,A549 NSCLC,78.7 µM
same,GI50,HOP-92 NSCLC,16.8 µM
same,TGI,HOP-92 NSCLC,45.6 µM
same,GI50,HOP-62 NSCLC,20.9 µM
same,TGI,HOP-62 NSCLC,51.8 µM
same,GI50,SW-620 colon,27.3 µM
same,TGI,SW-620 colon,> 100 µM
same,GI50,OVCAR-5 ovarian,25.9 µM
same,TGI,OVCAR-5 ovarian,71.7 µM
same,GI50,MDA-MB-231 breast,19.6 µM
same,TGI,MDA-MB-231 breast,46.9 µM
same,GI50,OVCAR-4 ovarian,32 µM
same,TGI,OVCAR-4 ovarian,> 100 µM
same,GI50,UACC-257 melanoma,21.2 µM
same,TGI,UACC-257 melanoma,44.7 µM
same,GI50,OVCAR-3 ovarian,26.2 µM
same,TGI,OVCAR-3 ovarian,58.9 µM
same,GI50,SNB-75 CNS,22.9 µM
same,TGI,SNB-75 CNS,87.7 µM
same,GI50,NCI-H460 lung,20.2 µM
same,TGI,NCI-H460 lung,48.7 µM
same,GI50,HCT-15 colon,31.7 µM
same,TGI,HCT-15 colon,> 100 µM
same,GI50,SF-539 CNS,23.3 µM
same,TGI,SF-539 CNS,53.8 µM
same,GI50,786-0 renal,22.4 µM
same,TGI,786-0 renal,55.9 µM
same,GI50,MALME-3M melanoma,21.5 µM
same,TGI,MALME-3M melanoma,45.4 µM
same,GI50,NCI-H23 lung,24.8 µM
same,TGI,NCI-H23 lung,58.2 µM
same,GI50,MOLT-4 leukemia,17.6 µM
same,TGI,MOLT-4 leukemia,60.1 µM
same,GI50,NCI-H226 lung,26.4 µM
same,TGI,NCI-H226 lung,72.8 µM

# — PubChem BioAssay (NCI)
